According to patent publication US7893074B2, “2, 4-pyrimidinediamines useful in the treatment of neoplastic diseases, inflammatory and immune system disorders” (Novartis AG, priority 2003, dated 2011):

Experiments:
[1] = target: Focal Adhesion Kinase (FAK) (Homo sapiens, UniProt Q05397); experiment: FAK assay system (Focal Adhesion Kinase inhibition); format: biochemical; conditions: read-out: FAK IC50
[2] = tested on: Mouse mammary carcinoma 4T1 cells; experiment: Anchorage-independent tumor cell growth assay; format: cell-based; conditions: Mus musculus, 4T1
Protocol: Cells are cultured for 2 h and inhibitors are added at various concentrations in a final concentration of 0.1% DMSO. After 48 h, cell growth is assayed with the cell counting kit-8 (Wako Pure Chemical), which uses a water soluble tetrazolium salt WST8. Twenty μL of the reagent is added into each well and cells are further cultured for 2 h. The optical density is measured at 450 nm.

FAK = FAK (Mus musculus, UniProt P34152); experiment: Phos IC50 (phosphorylation); format: cell-based
Chain of FAK (P34152 2-1052): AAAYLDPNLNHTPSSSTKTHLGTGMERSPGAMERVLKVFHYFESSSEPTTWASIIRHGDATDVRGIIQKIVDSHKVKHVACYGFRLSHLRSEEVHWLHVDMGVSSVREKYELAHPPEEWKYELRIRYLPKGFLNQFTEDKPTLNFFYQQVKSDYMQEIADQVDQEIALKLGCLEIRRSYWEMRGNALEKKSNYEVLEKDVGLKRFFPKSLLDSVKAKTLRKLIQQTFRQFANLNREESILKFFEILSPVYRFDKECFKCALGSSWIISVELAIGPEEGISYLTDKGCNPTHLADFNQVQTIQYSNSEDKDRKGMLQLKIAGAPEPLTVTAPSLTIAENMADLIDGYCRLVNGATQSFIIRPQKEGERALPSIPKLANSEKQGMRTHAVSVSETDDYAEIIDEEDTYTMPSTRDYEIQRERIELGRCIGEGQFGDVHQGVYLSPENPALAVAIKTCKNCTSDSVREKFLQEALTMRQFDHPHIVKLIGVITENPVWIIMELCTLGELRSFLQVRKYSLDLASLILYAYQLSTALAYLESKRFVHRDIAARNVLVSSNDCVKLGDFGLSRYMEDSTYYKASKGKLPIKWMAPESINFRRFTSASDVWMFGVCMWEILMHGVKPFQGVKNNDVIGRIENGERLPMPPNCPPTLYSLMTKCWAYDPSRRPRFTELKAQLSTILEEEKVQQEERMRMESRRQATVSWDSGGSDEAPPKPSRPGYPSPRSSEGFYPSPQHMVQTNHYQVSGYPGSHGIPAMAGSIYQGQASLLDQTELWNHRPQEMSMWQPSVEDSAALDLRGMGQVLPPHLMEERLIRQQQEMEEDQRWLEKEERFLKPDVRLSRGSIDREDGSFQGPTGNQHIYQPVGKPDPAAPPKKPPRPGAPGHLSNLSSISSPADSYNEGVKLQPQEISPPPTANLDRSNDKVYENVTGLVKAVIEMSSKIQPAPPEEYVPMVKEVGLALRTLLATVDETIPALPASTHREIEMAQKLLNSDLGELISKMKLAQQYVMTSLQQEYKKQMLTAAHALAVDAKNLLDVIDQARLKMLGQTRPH

Chain of Focal Adhesion Kinase (FAK) (Q05397 384-706): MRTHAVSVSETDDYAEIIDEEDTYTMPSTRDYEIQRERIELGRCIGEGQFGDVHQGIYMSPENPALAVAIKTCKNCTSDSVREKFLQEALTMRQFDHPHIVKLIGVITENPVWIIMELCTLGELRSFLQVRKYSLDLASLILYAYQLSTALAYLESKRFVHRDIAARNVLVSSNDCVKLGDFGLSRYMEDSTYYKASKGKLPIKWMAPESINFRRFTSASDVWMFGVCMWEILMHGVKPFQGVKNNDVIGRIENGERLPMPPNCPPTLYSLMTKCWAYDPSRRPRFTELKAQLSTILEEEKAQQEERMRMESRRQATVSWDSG

Structure (SMILES)	IC50 [1] [nM]	IC50 [2] [nM]	IC50 (FAK) [nM]
CCCCc1ccccc1Nc1ncc(Br)c(Nc2ccccc2S(=O)(=O)NC)n1 [Example 3-10]	52	> 10000	950
CNS(=O)(=O)c1ccccc1Nc1nc(Nc2cccc(OC)c2OC)ncc1Br [Example 3-14]	54	5000	400
CNS(=O)(=O)c1ccccc1Nc1nc(Nc2cc(C)cc(C)c2C)ncc1Br [Example 3-16]	48	3000	1100
CNS(=O)(=O)c1ccccc1Nc1nc(Nc2cc(C(C)C)ccc2C)ncc1Br [Example 3-18]	130	9000	1500
CNS(=O)(=O)c1ccccc1Nc1nc(Nc2cc(N3CCOCC3)ccc2C)ncc1Br [Example 3-20]	16	300	220
CNS(=O)(=O)c1ccccc1Nc1nc(Nc2cc(C(=O)N3CCOCC3)ccc2C)ncc1Br [Example 3-22]	120	2000	900
CNS(=O)(=O)c1ccccc1Nc1nc(Nc2cc(C(=O)NC3CCCCC3)ccc2C)ncc1Br [Example 3-23]	38	500	390
CNS(=O)(=O)c1ccccc1Nc1nc(Nc2cc(C(=O)N3CCNCC3)ccc2C)ncc1Br [Example 3-24]	64	5000	3500
CNS(=O)(=O)c1ccccc1Nc1nc(Nc2cc(N3CCCCC3)ccc2C)ncc1Br [Example 3-26]	50	2000	790
CNS(=O)(=O)c1ccccc1Nc1nc(Nc2cc(-c3cccc(OC)c3)ccc2C)ncc1Br [Example 3-28]	43	700	710
CCOc1ccc(-c2ccccc2)cc1Nc1ncc(Br)c(Nc2ccccc2S(=O)(=O)NC)n1 [Example 3-29]	89	> 10000	600
CCOc1ccc(-c2ccc(OC)cc2)cc1Nc1ncc(Br)c(Nc2ccccc2S(=O)(=O)NC)n1 [Example 3-30]	69	3000	600
CNS(=O)(=O)c1ccccc1Nc1nc(Nc2cccc3c2CCCC3)ncc1Br [Example 3-31]	13	5000	1100
CNS(=O)(=O)c1ccccc1Nc1nc(Nc2ccc(F)cc2Cl)ncc1Br [Example 3-37]	39	2600	1100
CNS(=O)(=O)c1ccccc1Nc1nc(Nc2cc(F)ccc2Cl)ncc1Br [Example 3-38]	64	3800	1700
CNS(=O)(=O)c1ccccc1Nc1nc(Nc2ccc(N3CCC(C#N)CC3)cc2OC)ncc1Br [Example 3-40]	9	900	> 10000
CNS(=O)(=O)c1ccccc1Nc1nc(Nc2ccc(N3CCSCC3)cc2OC)ncc1Br [Example 3-41]	22	430	> 10000
CNS(=O)(=O)c1ccccc1Nc1nc(Nc2ccc(N(CCOC)CCOC)cc2OC)ncc1Br [Example 3-42]	29	300	350
CNS(=O)(=O)c1ccccc1Nc1nc(Nc2cccc3c2ccn3CCCN2CCOCC2)ncc1Br [Example 3-45]	0.9	20	20
CNS(=O)(=O)c1ccccc1Nc1nc(Nc2ccc(N3CCNCC3)cc2OC)ncc1Br [Example 3-47]	1	60	100
CNS(=O)(=O)c1ccccc1Nc1nc(Nc2cc(Cl)ccc2OC)ncc1Br [Example 3-52]	29	2000	420

Structure (SMILES)	IC50 [1] [nM]	IC50 [2] [nM]	IC50 (FAK) [nM]
CCOc1ccc(OCC)c(Nc2ncc(Br)c(Nc3ccccc3S(=O)(=O)NC)n2)c1 [Example 3-55]	34	3000	> 10000
CCOc1ccc(N2CCOCC2)cc1Nc1ncc(Br)c(Nc2ccccc2S(=O)(=O)NC)n1 [Example 3-57]	28	3000	610
CNS(=O)(=O)c1ccccc1Nc1nc(Nc2cc(OC)ccc2OCCOC)ncc1Br [Example 3-59]	95	> 10000	1200
CNS(=O)(=O)c1ccccc1Nc1nc(Nc2cc(OC)ccc2OCCO)ncc1Br [Example 3-60]	90	2000	930
CNS(=O)(=O)c1ccccc1Nc1nc(Nc2cc(OC)ccc2OC(C)C)ncc1Br [Example 3-62]	63	> 10000	> 10000
CCCOc1ccc(OC)cc1Nc1ncc(Br)c(Nc2ccccc2S(=O)(=O)NC)n1 [Example 3-63]	27	> 10000	> 10000
CNS(=O)(=O)c1ccccc1Nc1nc(Nc2cc(-c3ccccn3)ccc2OC)ncc1Br [Example 3-67]	6	390	380
CNS(=O)(=O)c1ccccc1Nc1nc(Nc2ccc(OCCCN3CCOCC3)cc2OC)ncc1Br [Example 3-70]	3.5	130	20
CNS(=O)(=O)c1ccccc1Nc1nc(Nc2ccc(OCCCN3CCOCC3)cc2C)ncc1Br [Example 3-71]	11	80	50
CNS(=O)(=O)c1ccccc1Nc1nc(Nc2ccc(OCCCN3CCN(C)CC3)cc2OC)ncc1Br [Example 3-72]	2.1	60	110
CNS(=O)(=O)c1ccccc1Nc1nc(Nc2ccc(OC3CCN(C(C)=O)CC3)cc2OC)ncc1Br [Example 3-74]	15	150	100
CNS(=O)(=O)c1ccccc1Nc1nc(Nc2cc(OC3CCN(C(C)=O)CC3)ccc2OC)ncc1Br [Example 3-75]	72	1300	500
CNS(=O)(=O)c1ccccc1Nc1nc(Nc2cc(F)ccc2F)ncc1Br [Example 3-77]	65	3000	> 10000
CNS(=O)(=O)c1ccccc1Nc1nc(Nc2cc(OC3CCNCC3)ccc2OC)ncc1Br [Example 3-78]	10	220	> 10000
CNS(=O)(=O)c1ccccc1Nc1nc(Nc2ccc(OC3CCNCC3)cc2OC)ncc1Br [Example 3-79]	5	120	1300
CNS(=O)(=O)c1ccccc1Nc1nc(Nc2cc(N3CCN(C)CC3)ccc2OC)ncc1Br [Example 3-84]	10	80	1000
CNC(=O)c1ccccc1Nc1nc(Nc2ccc(OCCN3CCOCC3)cc2OC)ncc1Cl [Example 7-4]	5.2	290	1000
CNC(=O)c1ccccc1Nc1nc(Nc2ccc(N3CCN(C(C)=O)CC3)cc2OC)ncc1Cl [Example 7-7]	4.1	180	900
CNC(=O)c1ccccc1Nc1nc(Nc2ccc(N3CCC(O)CC3)cc2OC)ncc1Cl [Example 7-8]	8.7	1000	800
CCOCCOC1CCN(c2ccc(Nc3ncc(Cl)c(Nc4ccccc4C(=O)NC)n3)c(OC)c2)CC1 [Example 7-9]	8.2	850	1000
